Columns and labels:
[1] = biological target: T1, TYK2 (Homo sapiens, UniProt P29597); assay: HEK-Blue IFNα/β reporter assay (SEAP) for TYK2 pseudokinase inhibition; assay type: cell-based; details: HEK-Blue IFNα/β cells, 1 ng/mL human recombinant IFNα
Protocol: (§1) HEK-Blue™ IL-23 and IFNα/β cells with a stably-integrated cytokine receptor and STAT3 or STAT1 express STAT-inducible secreted embryonic alkaline phosphatase (SEAP) reporter gene upon cytokine stimulation. These cells are plated in DMVEM (Gibco) containing 10% heat-inactivated FBS (Gibco) and 100 U/mL PenStrep (Gibco) at 37° C. under […] conditions for 20-22 hours. The cells are then pretreated with serially diluted test compounds for 60 min prior to stimulation with either 10 ng/mL human recombinant IL-23 (Miltenyl Biotech) or 1 ng/mL human recombinant IFNα (InvivoGen) for 22-24 hours for IL-23 or 16-18 h for IFNα. SEAP induction is measured using the QUANTI Blue™ Solution (InvivoGen) according to the manufacturer's instructions. Inhibition data are calculated by comparison to no inhibitor control wells for 000 inhibition and non-stimulated control wells for 10000 inhibition. Dose response curves are generated to determine the concentration required to inhibit 5000 of cellular response (IC50) as derived by non-linear regression analysis.

[2] = biological target: T1, TYK2; assay: HEK-Blue IL-23 reporter assay (SEAP) for TYK2 pseudokinase inhibition; assay type: cell-based; set-up: HEK-Blue™ IL-23 and IFNα/β cells with a stably-integrated cytokine receptor and STAT3 or STAT1; host or cells: HEK-Blue IL-23 / HEK-Blue IFNα/β cells (HEK293 background); details: HEK-Blue IL-23 cells, 10 ng/mL human recombinant IL-23, SEAP reporter; read-out: IL23 IC50
Protocol: as §1

T1 sequence (P29597 whole entry): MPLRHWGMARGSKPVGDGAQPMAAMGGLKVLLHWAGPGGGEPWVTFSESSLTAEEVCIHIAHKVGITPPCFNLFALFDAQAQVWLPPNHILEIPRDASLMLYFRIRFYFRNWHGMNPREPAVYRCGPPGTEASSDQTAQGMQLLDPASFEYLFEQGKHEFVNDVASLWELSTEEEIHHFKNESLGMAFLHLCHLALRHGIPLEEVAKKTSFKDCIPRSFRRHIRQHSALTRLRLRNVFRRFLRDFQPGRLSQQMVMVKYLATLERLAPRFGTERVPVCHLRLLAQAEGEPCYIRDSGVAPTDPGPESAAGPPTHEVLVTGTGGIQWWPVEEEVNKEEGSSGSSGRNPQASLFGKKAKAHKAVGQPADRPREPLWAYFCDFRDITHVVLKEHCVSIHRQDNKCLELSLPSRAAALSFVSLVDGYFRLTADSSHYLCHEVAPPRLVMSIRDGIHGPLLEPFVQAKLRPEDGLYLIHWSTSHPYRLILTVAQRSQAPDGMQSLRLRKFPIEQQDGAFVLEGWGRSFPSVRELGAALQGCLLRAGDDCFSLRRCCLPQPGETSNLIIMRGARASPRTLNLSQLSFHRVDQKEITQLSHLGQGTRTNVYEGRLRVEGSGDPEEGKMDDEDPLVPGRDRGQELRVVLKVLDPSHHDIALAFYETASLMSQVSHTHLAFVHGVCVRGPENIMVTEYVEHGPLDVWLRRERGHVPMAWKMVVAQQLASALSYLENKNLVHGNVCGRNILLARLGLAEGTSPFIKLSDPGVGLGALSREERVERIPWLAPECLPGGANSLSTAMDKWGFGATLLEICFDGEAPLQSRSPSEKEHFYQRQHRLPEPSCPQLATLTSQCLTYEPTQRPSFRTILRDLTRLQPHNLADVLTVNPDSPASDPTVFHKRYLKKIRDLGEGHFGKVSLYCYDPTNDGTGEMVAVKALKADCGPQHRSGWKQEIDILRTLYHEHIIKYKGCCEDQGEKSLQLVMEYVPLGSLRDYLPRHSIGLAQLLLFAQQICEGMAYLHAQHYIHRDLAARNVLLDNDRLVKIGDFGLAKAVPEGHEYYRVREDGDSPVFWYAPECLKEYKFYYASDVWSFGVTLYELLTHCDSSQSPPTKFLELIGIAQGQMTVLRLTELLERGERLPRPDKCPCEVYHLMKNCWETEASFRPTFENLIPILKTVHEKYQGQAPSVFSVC

IC50 [1] | IC50 [2] | Structure (SMILES)
10 to 30 µM | < 10 µM | Cn1ccc(Nc2cc3c(cn2)c(=O)[nH]n3-c2ccccc2)n1 [Compound I-4, 6-((1-methyl-1H-pyrazol-3-yl)amino)-1-phenyl-1,2-dihydro-3H-pyrazolo[4,3-c]pyridin-3-one]
30 to 90 µM | 10 to 30 µM | Cn1cc(Nc2cc3c(cn2)c(=O)[nH]n3-c2ccccc2)cn1 [Compound I-5, 6-((1-methyl-1H-pyrazol-4-yl)amino)-1-phenyl-1,2-dihydro-3H-pyrazolo[4,3-c]pyridin-3-one]
< 10 µM | < 10 µM | Cc1cc(Nc2cc3c(cn2)c(=O)[nH]n3-c2ccccc2)ncc1F [Compound I-6, 6-((5-fluoro-4-methylpyridin-2-yl)amino)-1-phenyl-1,2-dihydro-3H-pyrazolo[4,3-c]pyridin-3-one]
30 to 90 µM | 10 to 30 µM | COCCC(=O)Nc1cc2c(cn1)c(=O)[nH]n2-c1ccccc1 [Compound I-7, 3-methoxy-N-(3-oxo-1-phenyl-2,3-dihydro-1H-pyrazolo[4,3-c]pyridin-6-yl)propanamide]
10 to 30 µM | < 10 µM | Cc1nc(Nc2cc3c(cn2)c(=O)[nH]n3-c2ccccc2)cc(OC(C)C)n1 [Compound I-8, 6-((6-isopropoxy-2-methylpyrimidin-4-yl)amino)-1-phenyl-1,2-dihydro-3H-pyrazolo[4,3-c]pyridin-3-one]
> 90 µM | > 90 µM | O=C(Nc1cc2c(cn1)c(=O)[nH]n2-c1ccccc1)c1ccccn1 [Compound I-9, N-(3-oxo-1-phenyl-2,3-dihydro-1H-pyrazolo[4,3-c]pyridin-6-yl)picolinamide]
– | > 90 µM | O=C(Nc1cc2c(cn1)c(=O)[nH]n2-c1ccccc1)c1cccnc1 [Compound I-10, N-(3-oxo-1-phenyl-2,3-dihydro-1H-pyrazolo[4,3-c]pyridin-6-yl)nicotinamide]
– | 30 to 90 µM | CC(C)N1CCN(c2cc3c(cn2)c(=O)[nH]n3-c2ccccc2)C1=O [Compound I-13, 6-(3-isopropyl-2-oxoimidazolidin-1-yl)-1-phenyl-1,2-dihydro-3H-pyrazolo[4,3-c]pyridin-3-one]
30 to 90 µM | 10 to 30 µM | COc1ccccc1-n1[nH]c(=O)c2cnc(NC(=O)C3CC3)cc21 [Compound I-15, N-(1-(2-methoxyphenyl)-3-oxo-2,3-dihydro-1H-pyrazolo[4,3-c]pyridin-6-yl)cyclopropanecarboxamide]
> 90 µM | 30 to 90 µM | COc1ccccc1-n1[nH]c(=O)c2cnc(Nc3ccc(F)cn3)cc21 [Compound I-16, 6-((5-fluoropyridin-2-yl)amino)-1-(2-methoxyphenyl)-1,2-dihydro-3H-pyrazolo[4,3-c]pyridin-3-one]
10 to 30 µM | < 10 µM | Cc1cc(Nc2cc3c(cn2)c(=O)[nH]n3-c2cccc(C#N)c2)nc(C)n1 [Compound I-18, 3-(6-((2,6-dimethylpyrimidin-4-yl)amino)-3-oxo-2,3-dihydro-1H-pyrazolo[4,3-c]pyridin-1-yl)benzonitrile]
10 to 30 µM | < 10 µM | COc1ccc(-n2[nH]c(=O)c3cnc(NC(=O)C4CC4)cc32)cc1 [Compound I-19, N-(1-(4-methoxyphenyl)-3-oxo-2,3-dihydro-1H-pyrazolo[4,3-c]pyridin-6-yl)cyclopropanecarboxamide]
30 to 90 µM | 10 to 30 µM | Cc1cc(Nc2cc3c(cn2)c(=O)[nH]n3-c2ccccc2S(C)(=O)=O)nc(C)n1 [Compound I-20, 6-((2,6-dimethylpyrimidin-4-yl)amino)-1-(2-(methylsulfonyl)phenyl)-1,2-dihydro-3H-pyrazolo[4,3-c]pyridin-3-one]
– | > 90 µM | Cc1cc(Nc2cc3c(cn2)c(=O)[nH]n3-c2cccc(C(N)=O)c2)nc(C)n1 [Compound I-21, 3-(6-((2,6-dimethylpyrimidin-4-yl)amino)-3-oxo-2,3-dihydro-1H-pyrazolo[4,3-c]pyridin-1-yl)benzamide]
10 to 30 µM | < 10 µM | COc1c(-c2ncn(C)n2)cccc1-n1[nH]c(=O)c2cnc(Nc3cc(C)nc(C)n3)cc21 [Compound I-22, 6-[(2,6-dimethylpyrimidin-4-yl)amino]-1-[2-methoxy-3-(1-methyl-1H-1,2,4-triazol-3-yl)phenyl]-1H,2H,3H-pyrazolo[4,3-c]pyridin-3-one]
10 to 30 µM | < 10 µM | Cc1cc(Nc2cc3c(cn2)c(=O)[nH]n3-c2cccc(-c3ncn(C)n3)c2)nc(C)n1 [Compound I-23, 6-((2,6-dimethylpyrimidin-4-yl)amino)-1-(3-(1-methyl-1H-1,2,4-triazol-3-yl)phenyl)-1,2-dihydro-3H-pyrazolo[4,3-c]pyridin-3-one]
> 90 µM | 10 to 30 µM | COc1cccc(-n2[nH]c(=O)c3cnc(Nc4cc(C)nc(C)n4)c(F)c32)c1 [Compound I-24, 6-((2,6-dimethylpyrimidin-4-yl)amino)-7-fluoro-1-(3-methoxyphenyl)-1,2-dihydro-3H-pyrazolo[4,3-c]pyridin-3-one]
< 10 µM | < 10 µM | CS(=O)(=O)c1ccccc1-n1[nH]c(=O)c2cnc(Nc3ccc(F)cn3)cc21 [Compound I-26, 6-((5-fluoropyridin-2-yl)amino)-1-(2-(methylsulfonyl)phenyl)-1,2-dihydro-3H-pyrazolo[4,3-c]pyridin-3-one]
– | > 90 µM | Cc1cc(Nc2cc3c(cn2)c(=O)[nH]n3-c2cccc(S(C)(=O)=O)c2)nc(C)n1 [Compound I-27, 6-((2,6-dimethylpyrimidin-4-yl)amino)-1-(3-(methylsulfonyl)phenyl)-1,2-dihydro-3H-pyrazolo[4,3-c]pyridin-3-one]
< 10 µM | < 10 µM | Cc1cc(Nc2cc3c(cn2)c(=O)[nH]n3-c2cccc(OC(F)(F)F)c2)nc(C)n1 [Compound I-28, 6-((2,6-dimethylpyrimidin-4-yl)amino)-1-(3-(trifluoromethoxy)phenyl)-1,2-dihydro-3H-pyrazolo[4,3-c]pyridin-3-one]
< 10 µM | < 10 µM | Cc1cc(Nc2cc3c(cn2)c(=O)[nH]n3-c2cccc(C(F)(F)F)c2)ncc1F [Compound I-29, 6-((5-fluoro-4-methylpyridin-2-yl)amino)-1-(3-(trifluoromethyl)phenyl)-1,2-dihydro-3H-pyrazolo[4,3-c]pyridin-3-one]
– | > 90 µM | COc1cccc(-n2[nH]c(=O)c3cnc(Nc4cc(C(F)(F)F)ccn4)cc32)c1 [Compound I-43, 1-(3-methoxyphenyl)-6-((4-(trifluoromethyl)pyridin-2-yl)amino)-1,2-dihydro-3H-pyrazolo[4,3-c]pyridin-3-one]
– | > 90 µM | O=c1[nH]n(-c2cc(Cl)cc(Cl)c2)c2cc(Nc3ccc(F)cn3)ncc12 [Compound I-97, 1-(3,5-dichlorophenyl)-6-((5-fluoropyridin-2-yl)amino)-1,2-dihydro-3H-pyrazolo[4,3-c]pyridin-3-one]
– | > 90 µM | Cc1cc(Nc2cc3c(cn2)c(=O)[nH]n3-c2ccc(C(N)=O)cc2)nc(C)n1 [Compound I-123, 4-(6-((2,6-dimethylpyrimidin-4-yl)amino)-3-oxo-2,3-dihydro-1H-pyrazolo[4,3-c]pyridin-1-yl)benzamide]
– | < 10 µM | COc1cccc(-n2[nH]c(=O)c3cnc(NC(=O)C4(O)CC4)cc32)c1 [Compound I-124, 1-hydroxy-N-(1-(3-methoxyphenyl)-3-oxo-2,3-dihydro-1H-pyrazolo[4,3-c]pyridin-6-yl)cyclopropane-1-carboxamide]

— patent US12668594B2, “TYK2 inhibitors and uses thereof” (Sudo Biosciences Limited, priority 2020, dated 2026)
